In paper PMC4038709 (Bioorganic & medicinal chemistry, 2014):

Target: T1, SET7 (Homo sapiens, UniProt Q8WTS6)
T1 sequence (Q8WTS6 52-366): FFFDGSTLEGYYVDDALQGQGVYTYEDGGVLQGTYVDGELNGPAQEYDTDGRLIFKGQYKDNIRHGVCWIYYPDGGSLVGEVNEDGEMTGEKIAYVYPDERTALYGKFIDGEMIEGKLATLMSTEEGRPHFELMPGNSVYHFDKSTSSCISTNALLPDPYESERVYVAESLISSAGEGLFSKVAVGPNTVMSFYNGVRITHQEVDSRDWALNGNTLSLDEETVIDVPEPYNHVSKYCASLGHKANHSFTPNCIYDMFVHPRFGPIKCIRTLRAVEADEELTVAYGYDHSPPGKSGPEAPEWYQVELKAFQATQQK
Experiment: SET7 scintillation proximity assay
Type: biochemical
Settings: SPA, 50 µM and 15 µM inhibitor, comparison with 19 (Fig. 4)

Row | relative potency against SET7 (SAR, in words) | Compound
1 | reduced inhibitor potency | O=C(O)c1cccc(NCc2ccc(-n3ccc4c(-c5ccc(C(F)(F)F)cc5)ncnc43)s2)c1 [Compound 26]
2 | reduced inhibitor potency | O=C(O)c1cccc(CNc2cccc(-n3ccc4c(-c5ccc(C(F)(F)F)cc5)ncnc43)c2)c1 [Compound 25]

Target: T1, SET7
Experiment: SET7 ELISA methylation assay
Type: biochemical
Settings: comparison with parent analog, ELISA 40 µM (Fig. 3)

Row | relative potency against SET7 (SAR, in words) | Compound
3 | even more effective | O=C(O)c1cccc(SCc2cccc(-n3ccc4c(-c5ccccc5)cccc43)c2)c1 [Compound 13, 3-(3-(4-phenyl-1H-indol-1-yl)benzylthio)benzoic acid]
4 | increased potency | O=C(O)c1cccc(SCc2cccc(-n3ccc4c(Br)cccc43)c2)c1 [Compound 12, 3-(3-(4-bromo-1H-indol-1-yl)benzylthio)benzoic acid]
5 | greatly suppressed activity | O=C(O)c1ccc(-c2cccc3c2ccn3-c2cccc(CNc3cccc(C(=O)O)c3)c2)cc1 [Compound 15, 3-(3-(4-(4-carboxyphenyl)-1H-indol-1-yl)benzylamino)benzoic acid]
6 | more potent inhibitors of SET7 than 7 | O=C(O)c1cccc(SCc2cccc(-n3ccc4cc(Br)ccc43)c2)c1 [Compound 11, 3-(3-(5-bromo-1H-indol-1-yl)benzylthio)benzoic acid]
7 | more potent inhibitors of SET7 than 7 | O=C(O)CCCSCc1cccc(-n2ccc3cc(Br)ccc32)c1 [Compound 10, 4-(3-(5-bromo-1H-indol-1-yl)benzylthio)butanoic acid]

Same assay, conditions: read-out: inhibition of SET7

Row | inhibition at 40 µM [%] | Compound
8 | 50 to 60 | O=C(O)c1cccc(NCc2cccc(-n3ccc4c(-c5ccccc5)cccc43)c2)c1 [Compound 14, 3-(3-(4-phenyl-1H-indol-1-yl)benzylamino)benzoic acid]
9 | 50 to 60 | O=C(O)c1cccc(SCc2cccc(-n3ccc4c(-c5ccccc5)cccc43)c2)c1 [Compound 13, 3-(3-(4-phenyl-1H-indol-1-yl)benzylthio)benzoic acid]
